Where two headings read alike, the source gives them in different places. Square brackets hold non-standard residues; d marks the D form. Peptide text beside a SMILES is read from it. Orn = NCCC[C@H](N)C(=O)O
Columns and labels:
Assay in all cases: microbe, parasite or virus in culture
Assay type in all cases: cell-based, Plasmodium falciparum
[1] = tested on: CQS P. falciparum 3D7
Protocol: (§1) The antimalarial assays were carried out according to the method of Nkhoma et al.. […] On the day of the assay, the parasitemia was determined following observation by light microscopy after Giemsa staining of a thin blood smear from the culture. The cultures at young trophozoite stage were diluted to 2% parasitemia and 2% hematocrit by addition of fresh RPMI medium and uninfected erythrocytes. This culture suspension was distributed in 96-well culture plates at 90 µL/well. […] Peptide solvent and medium (10 µL/well) was used as sterility control and in growth control and 10 μL 1.0 mM GS was used as positive control. Assays were carried out in at least three biological repeats each consisting of three technical repeats to ascertain reproducibility.
(§2) The culture suspension was frozen away at −20 °C until determination of the residual lactate dehydrogenase activity of the parasites by the Malstat assay, as adapted from Gomez et al..
(§3) For the Malstat assay, the plates were transferred to −80 °C for 1 h following overnight storage at −20 °C to ensure that all the suspensions in each well of the 96-well plate were frozen. The plates were then thawed at room temperature. The Malstat reagent consisted of 200 μL Triton X-100, 2 g L-lactic acid (substrate), 0.66 g Tris-HCl buffer and 0.011 g of 3-acetylpyridine adenine dinucleotide (APAD) (coenzyme for parasite lactate dehydrogenase) in 100 mL analytical quality water set to a pH of 9.0 [93]. […] A 15 µL aliquot of the thawed and properly mixed suspension from the assay plates was added to 100 µL of the Malstat reagent, followed by addition of 25 µL of the NBT/PES solution. The reaction mixtures were then incubated at room temperature in the dark for 30 min followed by spectrophotometric measurement of the absorbance of the reduced APAD at 620 nm using a Model 680 Microplate reader from BioRad.
(§4) The data obtained from spectrophotometric measurement of the plates following the lactate dehydrogenase (Malstat) assay were converted to percentage growth inhibition using the data analysis method described by Rautenbach et al.. The background was obtained from control wells in which the parasites were killed with 100 µM GS while total growth was from the wells that were not submitted to peptides. […] The percentage COS-1 cell death (CellTiter Blue™ assay) was similarly calculated from absorbance values.

[2] = tested on: CQR P. falciparum Dd2; details: for IC50: 48 h, Malstat, ± SEM, read-out: IC50, CQR P. falciparum Dd2; for Resistance Index IC50Dd2/IC503D7: first value of cell; for Resistance Index IC50Dd2/IC50D10: second value of cell
Protocol: as §1, §2, §3, §4

[3] = tested on: CQI P. falciparum D10; details: for IC50: 48 h, Malstat, ± SEM; for Selectivity Index IC50D10/IC50 (COS cells): second value of cell
Protocol: The antimalarial assays were carried out according to the method of Nkhoma et al.. Once the cultures reached a parasitemia of 5–15%, they were synchronized four days prior to the day of the assay as described above which allowed the cultures to recover from the stress caused by the D-sorbitol. On the day of the assay, the parasitemia was determined following observation by light microscopy after Giemsa staining of a thin blood smear from the culture. The cultures at young trophozoite stage were diluted to 2% parasitemia and 2% hematocrit by addition of fresh RPMI medium and uninfected erythrocytes. This culture suspension was distributed in 96-well culture plates at 90 µL/well. The peptides and CQ diluted in culture medium lacking albumax II were added to the cultures in triplicate at 10 µL/well to give a total volume of 100 µL/well. Peptide solvent and medium (10 µL/well) was used as sterility control and in growth control and 10 μL 1.0 mM GS was used as positive control. Assays were carried out in at least three biological repeats each consisting of three technical repeats to ascertain reproducibility.
For the activity determination against parasites, plates were incubated at 37 °C for 48 h under an atmosphere of 3% CO2, 4% O2 and 93% N2. The culture suspension was frozen away at −20 °C until determination of the residual lactate dehydrogenase activity of the parasites by the Malstat assay, as adapted from Gomez et al..
For the Malstat assay, the plates were transferred to −80 °C for 1 h following overnight storage at −20 °C to ensure that all the suspensions in each well of the 96-well plate were frozen. The plates were then thawed at room temperature. The Malstat reagent consisted of 200 μL Triton X-100, 2 g L-lactic acid (substrate), 0.66 g Tris-HCl buffer and 0.011 g of 3-acetylpyridine adenine dinucleotide (APAD) (coenzyme for parasite lactate dehydrogenase) in 100 mL analytical quality water set to a pH of 9.0 [93]. The lactate dehydrogenase reaction was initiated by addition of a second solution, NBT/PES solution composed of 1.96 mM nitro blue tetrazolium (NBT) and 0.24 mM phenazine ethosulfate (PES) which was always protected from light. A 15 µL aliquot of the thawed and properly mixed suspension from the assay plates was added to 100 µL of the Malstat reagent, followed by addition of 25 µL of the NBT/PES solution. The reaction mixtures were then incubated at room temperature in the dark for 30 min followed by spectrophotometric measurement of the absorbance of the reduced APAD at 620 nm using a Model 680 Microplate reader from BioRad.
The data obtained from spectrophotometric measurement of the plates following the lactate dehydrogenase (Malstat) assay were converted to percentage growth inhibition using the data analysis method described by Rautenbach et al.. The background was obtained from control wells in which the parasites were killed with 100 µM GS while total growth was from the wells that were not submitted to peptides. The background for the hemolysis evaluation was from wells in which the uninfected erythrocytes were lysed using 100 µM GS while growth control was from the wells with uninfected erythrocytes that received no peptides. The percentage COS-1 cell death (CellTiter Blue™ assay) was similarly calculated from absorbance values. All the dose–response assay data were evaluated using GraphPad Prism 4.03 (GraphPad Software, San Diego, CA, USA) followed by non-linear regression and sigmoidal curves were fitted (having variable slope and a constant difference of 100 between the top and bottom plateau). Following calculation of the 50% P. falciparum inhibitory concentration (IC50), 50% hemolytic concentration (HC50) and 50% lethal concentration (LC50) for COS-1 cells.

[4] = 48 h, Malstat, ± SEM, read-out: IC50, CQS P. falciparum 3D7

Structure (SMILES)	IC50 ([1]; CQS 3D7, 48 h)	IC50 [2]	Resistance Index IC50Dd2/IC503D7 [2]	Resistance Index IC50Dd2/IC50D10 [2]	IC50 [3]	Selectivity Index IC50D10/IC50 (COS cells) [3]	IC50 [1, 4]	increase in activity towards the CQI D10 strain ([3]; compared with 3D7)
CC(C)C[C@@H]1NC(=O)[C@H](CCCN)NC(=O)[C@H](C(C)C)NC(=O)[C@H](Cc2ccccc2)NC(=O)[C@H](CCC(N)=O)NC(=O)[C@H](CC(N)=O)NC(=O)[C@@H](Cc2ccccc2)NC(=O)[C@H](Cc2ccccc2)NC(=O)[C@@H]2CCCN2C(=O)[C@@H](Cc2ccccc2)NC1=O [PhcA, phenycidine A] (cyclo(FV[Orn]L[dF]PF[dF]NQ))	23 ± 7 nM	511 ± 96 nM	22	10	52 ± 17 nM	154		
CC(C)C[C@@H]1NC(=O)[C@H](CCCN)NC(=O)[C@H](C(C)C)NC(=O)[C@H](Cc2c[nH]c3ccccc23)NC(=O)[C@H](CCC(N)=O)NC(=O)[C@H](CC(N)=O)NC(=O)[C@@H](Cc2c[nH]c3ccccc23)NC(=O)[C@H](Cc2c[nH]c3ccccc23)NC(=O)[C@@H]2CCCN2C(=O)[C@@H](Cc2ccccc2)NC1=O [TpcC, tryptocidine C] (cyclo(L[dF]PW[dW]NQWV[Orn]))		398 ± 94 nM	3	9	42 ± 17 nM	238	126 ± 28 nM	about a three-fold increase in activity
CC(C)C[C@@H]1NC(=O)[C@H](CCCN)NC(=O)[C@H](C(C)C)NC(=O)[C@H](Cc2ccc(O)cc2)NC(=O)[C@H](CCC(N)=O)NC(=O)[C@H](CC(N)=O)NC(=O)[C@@H](Cc2ccccc2)NC(=O)[C@H](Cc2ccccc2)NC(=O)[C@@H]2CCCN2C(=O)[C@@H](Cc2ccccc2)NC1=O [TrcA, tyrocidine A] (cyclo(V[Orn]L[dF]PF[dF]NQY))		1800 ± 319 nM				51	41 ± 12 nM	
